According to patent publication EP4722207A1, “OXOISOINDOLINYL-SUBSTITUTED TETRAHYDROPYRIMIDINEDIONE DERIVATIVE AND USE THEREOF” (Gluetacs Therapeutics (Shanghai) Co., Ltd., priority 2023, dated 2024):

What was measured:
Assay type in all cases: cell-based
Conditions in all cases: compounds at 50 nM and 500 nM, 24 hours
WEE1 = target: T1, WEE1 (Homo sapiens, UniProt P30291+Q96SW2); experiment: Western-blot assay, substrate protein degradation in hPBMCs: WEE1
T1 construct: effects of the compounds of the present disclosure on the expression of target proteins in cells; endogenous in cells; host or cells: human PBMCs (hPBMCs)

IKZF1 = target: T2, IKZF1 (Homo sapiens, UniProt Q13422+Q96SW2); experiment: Western-blot assay, substrate protein degradation in hPBMCs: IKZF1
T2 construct: effects of the compounds of the present disclosure on the expression of target proteins in cells; endogenous in cells; host or cells: human PBMCs (hPBMCs)

IKZF3 = target: T3, IKZF3 (Homo sapiens, UniProt Q96SW2+Q9UKT9); experiment: Western-blot assay, substrate protein degradation in hPBMCs: IKZF3
T3 construct: effects of the compounds of the present disclosure on the expression of target proteins in cells; endogenous in cells; host or cells: human PBMCs (hPBMCs)

CK1α = target: T4, CK1α (Homo sapiens, UniProt P48729+Q96SW2); experiment: Western-blot assay, substrate protein degradation in hPBMCs: CK1α
T4 construct: effects of the compounds of the present disclosure on the expression of target proteins in cells; endogenous in cells; host or cells: human PBMCs (hPBMCs)

IKZF2 = target: T5, IKZF2 (Homo sapiens, UniProt Q96SW2+Q9UKS7); experiment: Western-blot assay, substrate protein degradation in hPBMCs: IKZF2
T5 construct: effects of the compounds of the present disclosure on the expression of target proteins in cells; endogenous in cells; host or cells: human PBMCs (hPBMCs)

GSPT1 = target: T6, GSPT1 (Homo sapiens, UniProt P15170+Q96SW2); experiment: Western-blot assay, substrate protein degradation in hPBMCs: GSPT1
T6 construct: effects of the compounds of the present disclosure on the expression of target proteins in cells; endogenous in cells; host or cells: human PBMCs (hPBMCs)
T6 sequence (P15170 whole entry): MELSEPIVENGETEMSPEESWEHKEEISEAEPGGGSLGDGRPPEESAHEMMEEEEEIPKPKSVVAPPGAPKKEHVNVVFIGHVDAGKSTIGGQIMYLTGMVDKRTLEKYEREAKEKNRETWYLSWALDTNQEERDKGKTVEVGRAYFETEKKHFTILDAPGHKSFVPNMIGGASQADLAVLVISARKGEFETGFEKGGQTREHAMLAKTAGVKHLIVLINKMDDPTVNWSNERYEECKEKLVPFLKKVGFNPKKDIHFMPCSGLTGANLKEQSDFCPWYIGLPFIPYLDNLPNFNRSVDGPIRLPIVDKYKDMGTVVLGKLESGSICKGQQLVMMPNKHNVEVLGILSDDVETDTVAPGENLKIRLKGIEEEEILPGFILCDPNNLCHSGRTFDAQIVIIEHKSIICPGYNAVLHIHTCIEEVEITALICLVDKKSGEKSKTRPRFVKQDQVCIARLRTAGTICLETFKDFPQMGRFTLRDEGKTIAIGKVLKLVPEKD
T6 sequence (Q96SW2 whole entry): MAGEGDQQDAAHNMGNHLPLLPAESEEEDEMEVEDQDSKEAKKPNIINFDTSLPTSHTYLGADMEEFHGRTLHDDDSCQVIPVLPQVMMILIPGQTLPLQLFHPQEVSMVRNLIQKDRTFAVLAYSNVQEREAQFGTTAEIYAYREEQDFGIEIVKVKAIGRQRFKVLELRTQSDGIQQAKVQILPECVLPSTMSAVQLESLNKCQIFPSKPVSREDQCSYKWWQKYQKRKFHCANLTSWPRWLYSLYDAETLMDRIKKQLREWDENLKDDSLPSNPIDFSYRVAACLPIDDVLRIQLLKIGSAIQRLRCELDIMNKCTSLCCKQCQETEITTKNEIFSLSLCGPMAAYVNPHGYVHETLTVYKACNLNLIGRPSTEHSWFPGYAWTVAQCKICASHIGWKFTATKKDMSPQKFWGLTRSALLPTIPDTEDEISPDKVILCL
T6 sequence (Q16531 whole entry partner): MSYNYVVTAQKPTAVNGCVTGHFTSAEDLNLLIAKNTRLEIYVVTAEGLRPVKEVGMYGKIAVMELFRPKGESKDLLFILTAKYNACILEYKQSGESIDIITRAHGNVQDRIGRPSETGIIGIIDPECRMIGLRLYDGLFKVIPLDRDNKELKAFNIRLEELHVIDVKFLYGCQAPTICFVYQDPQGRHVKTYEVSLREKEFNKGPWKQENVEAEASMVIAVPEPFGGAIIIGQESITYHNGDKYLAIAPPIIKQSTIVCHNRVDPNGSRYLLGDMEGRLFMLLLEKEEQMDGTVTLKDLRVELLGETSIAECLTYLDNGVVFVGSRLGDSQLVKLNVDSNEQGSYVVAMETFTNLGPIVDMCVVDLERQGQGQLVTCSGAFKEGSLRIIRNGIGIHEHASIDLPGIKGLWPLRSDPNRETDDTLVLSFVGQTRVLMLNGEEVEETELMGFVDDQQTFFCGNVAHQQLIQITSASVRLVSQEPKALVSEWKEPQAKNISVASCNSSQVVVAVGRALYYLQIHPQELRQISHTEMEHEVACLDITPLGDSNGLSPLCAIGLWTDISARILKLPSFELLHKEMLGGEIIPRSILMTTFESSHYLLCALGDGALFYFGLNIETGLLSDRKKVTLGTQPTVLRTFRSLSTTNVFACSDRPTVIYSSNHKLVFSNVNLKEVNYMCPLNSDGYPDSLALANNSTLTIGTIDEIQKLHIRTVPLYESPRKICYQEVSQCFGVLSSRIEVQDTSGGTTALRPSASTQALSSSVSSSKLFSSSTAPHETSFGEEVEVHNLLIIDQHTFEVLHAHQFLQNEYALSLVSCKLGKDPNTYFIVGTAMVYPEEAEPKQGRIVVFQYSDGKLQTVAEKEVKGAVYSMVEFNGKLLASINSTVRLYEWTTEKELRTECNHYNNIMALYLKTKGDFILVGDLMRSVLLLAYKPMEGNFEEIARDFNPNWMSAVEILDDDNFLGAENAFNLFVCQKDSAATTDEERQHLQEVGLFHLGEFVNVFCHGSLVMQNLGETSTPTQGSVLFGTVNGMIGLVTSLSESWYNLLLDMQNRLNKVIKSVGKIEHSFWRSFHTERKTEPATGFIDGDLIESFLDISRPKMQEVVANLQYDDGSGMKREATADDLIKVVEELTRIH

T5 sequence (Q9UKS7 whole entry): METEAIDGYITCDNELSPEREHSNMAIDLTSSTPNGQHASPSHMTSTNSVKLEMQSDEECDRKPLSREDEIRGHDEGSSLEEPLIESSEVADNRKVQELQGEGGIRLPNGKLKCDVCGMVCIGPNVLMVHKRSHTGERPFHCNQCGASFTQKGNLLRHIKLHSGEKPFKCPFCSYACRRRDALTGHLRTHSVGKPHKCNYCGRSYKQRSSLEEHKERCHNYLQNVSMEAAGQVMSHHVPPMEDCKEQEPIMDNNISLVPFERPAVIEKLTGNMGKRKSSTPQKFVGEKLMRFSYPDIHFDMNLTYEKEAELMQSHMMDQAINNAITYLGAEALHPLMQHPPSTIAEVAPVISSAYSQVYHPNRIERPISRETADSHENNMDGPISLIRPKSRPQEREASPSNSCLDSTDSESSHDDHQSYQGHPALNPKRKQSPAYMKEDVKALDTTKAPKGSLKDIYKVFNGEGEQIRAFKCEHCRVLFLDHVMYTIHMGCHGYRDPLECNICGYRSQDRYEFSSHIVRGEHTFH
T5 sequence (Q96SW2 whole entry): as the sequence (Q96SW2 whole entry) above
T5 sequence (Q16531 whole entry partner): as the sequence (Q16531 whole entry partner) above
T2 sequence (Q13422 whole entry): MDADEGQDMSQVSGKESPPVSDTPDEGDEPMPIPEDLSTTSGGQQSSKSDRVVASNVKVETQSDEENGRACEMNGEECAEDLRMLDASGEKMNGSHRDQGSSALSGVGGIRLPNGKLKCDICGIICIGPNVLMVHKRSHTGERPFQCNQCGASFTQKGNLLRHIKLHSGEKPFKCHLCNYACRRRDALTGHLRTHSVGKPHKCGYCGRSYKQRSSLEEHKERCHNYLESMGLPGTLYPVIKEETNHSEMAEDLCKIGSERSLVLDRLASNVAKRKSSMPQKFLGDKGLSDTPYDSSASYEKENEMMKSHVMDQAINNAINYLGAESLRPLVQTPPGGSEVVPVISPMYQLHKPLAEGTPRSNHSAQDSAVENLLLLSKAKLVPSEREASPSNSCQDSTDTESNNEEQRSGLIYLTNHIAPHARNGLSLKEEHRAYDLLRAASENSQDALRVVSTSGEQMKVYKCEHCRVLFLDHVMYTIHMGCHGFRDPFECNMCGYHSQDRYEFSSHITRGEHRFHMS
T2 sequence (Q96SW2 whole entry): as the sequence (Q96SW2 whole entry) above
T2 sequence (Q16531 whole entry partner): as the sequence (Q16531 whole entry partner) above
T1 sequence (P30291 whole entry): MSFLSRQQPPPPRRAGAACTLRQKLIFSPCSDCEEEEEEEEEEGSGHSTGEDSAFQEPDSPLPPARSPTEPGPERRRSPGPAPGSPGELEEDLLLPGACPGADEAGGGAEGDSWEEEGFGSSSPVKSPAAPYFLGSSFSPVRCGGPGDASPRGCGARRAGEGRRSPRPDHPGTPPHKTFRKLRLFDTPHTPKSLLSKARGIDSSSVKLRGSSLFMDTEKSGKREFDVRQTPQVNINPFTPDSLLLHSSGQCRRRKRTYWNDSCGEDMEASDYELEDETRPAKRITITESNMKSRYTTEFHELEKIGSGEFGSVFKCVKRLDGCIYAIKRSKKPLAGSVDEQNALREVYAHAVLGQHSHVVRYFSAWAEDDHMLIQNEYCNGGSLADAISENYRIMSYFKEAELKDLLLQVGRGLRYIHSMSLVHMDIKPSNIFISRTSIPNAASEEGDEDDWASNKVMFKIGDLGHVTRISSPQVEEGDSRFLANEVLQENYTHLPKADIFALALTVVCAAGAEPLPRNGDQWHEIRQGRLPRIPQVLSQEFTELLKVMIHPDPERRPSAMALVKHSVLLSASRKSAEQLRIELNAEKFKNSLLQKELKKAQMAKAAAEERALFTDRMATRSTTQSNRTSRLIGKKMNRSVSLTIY
T1 sequence (Q96SW2 whole entry): as the sequence (Q96SW2 whole entry) above
T1 sequence (Q16531 whole entry partner): as the sequence (Q16531 whole entry partner) above
T4 sequence (P48729 whole entry): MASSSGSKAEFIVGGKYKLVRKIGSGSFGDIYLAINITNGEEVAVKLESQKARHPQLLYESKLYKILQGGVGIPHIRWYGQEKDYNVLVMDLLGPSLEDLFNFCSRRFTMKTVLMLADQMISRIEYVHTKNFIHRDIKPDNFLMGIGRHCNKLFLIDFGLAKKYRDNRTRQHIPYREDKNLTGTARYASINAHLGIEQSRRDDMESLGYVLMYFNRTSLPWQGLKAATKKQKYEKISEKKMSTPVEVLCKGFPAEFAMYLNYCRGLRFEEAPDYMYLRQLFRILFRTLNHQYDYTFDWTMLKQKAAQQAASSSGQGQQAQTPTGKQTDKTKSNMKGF
T4 sequence (Q96SW2 whole entry): as the sequence (Q96SW2 whole entry) above
T4 sequence (Q16531 whole entry partner): as the sequence (Q16531 whole entry partner) above

Structure (SMILES)	WEE1 substrate protein remaining % (WEE1)	IKZF1 substrate protein remaining % (IKZF1)	IKZF3 substrate protein remaining % (IKZF3)	CK1α substrate protein remaining % (CK1α)	IKZF2 substrate protein remaining % (IKZF2)	GSPT1 substrate protein remaining % (GSPT1)
O=C1CCN(N2C(=O)c3ccc(CN4C5CC4CN(c4cccc(Cl)c4Cl)C5)cc3C2=O)C(=O)N1 [GT-05251, 5-((3-(2,3-dichlorophenyl)-3,6-diazabicyclo[3.1.1]heptan-6-yl)methyl)-2-(2,4-dioxotetrahydropyrimidin-1(2H)-yl)isoindoline-1,3-dione]	B ("B" is defined as 80%< substrate protein remaining %≤ 100%)	B ("B" is defined as 80%< substrate protein remaining %≤ 100%)	B ("B" is defined as 80%< substrate protein remaining %≤ 100%)	B ("B" is defined as 80%< substrate protein remaining %≤ 100%)	A ("A" is defined as 0% ≤ substrate protein remaining % ≤ 80%)	B ("B" is defined as 80%< substrate protein remaining %≤ 100%)
O=C1CCN(N2C(=O)c3ccc(CN4CCn5c(nnc5C(F)(F)F)C4)cc3C2=O)C(=O)N1 [GT-05253, 2-(2,4-dioxotetrahydropyrimidin-1(2H)-yl)-5-((3-(trifluoromethyl)-5,6-dihydro-[1,2,4]triazolo[4,3-a]pyrazin-7(8H)-yl)methyl)isoindoline-1,3-dione]	B ("B" is defined as 80%< substrate protein remaining %≤ 100%)	B ("B" is defined as 80%< substrate protein remaining %≤ 100%)	B ("B" is defined as 80%< substrate protein remaining %≤ 100%)	B ("B" is defined as 80%< substrate protein remaining %≤ 100%)	B ("B" is defined as 80%< substrate protein remaining %≤ 100%)	A ("A" is defined as 0% ≤ substrate protein remaining % ≤ 80%)
O=C1CCN(N2C(=O)c3ccc(CN4CCc5sccc5C4)cc3C2=O)C(=O)N1 [GT-05254, 5-((6,7-dihydrothieno[3,2-c]pyridin-5(4H)-yl)methyl)-2-(2,4-dioxotetrahydropyrimidin-1(2H)-yl)isoindoline-1,3-dione]	B ("B" is defined as 80%< substrate protein remaining %≤ 100%)	B ("B" is defined as 80%< substrate protein remaining %≤ 100%)	B ("B" is defined as 80%< substrate protein remaining %≤ 100%)	B ("B" is defined as 80%< substrate protein remaining %≤ 100%)	B ("B" is defined as 80%< substrate protein remaining %≤ 100%)	A ("A" is defined as 0% ≤ substrate protein remaining % ≤ 80%)
O=C1CCN(N2C(=O)c3ccc(CN4CCC(c5c[nH]c6cc(F)ccc56)CC4)cc3C2=O)C(=O)N1 [GT-05259, 2-(2,4-dioxotetrahydropyrimidin-1(2H)-yl)-5-((4-(6-fluoro-1H-indol-3-yl)piperidin-1-yl)methyl)isoindoline-1,3-dione]	B ("B" is defined as 80%< substrate protein remaining %≤ 100%)	A ("A" is defined as 0% ≤ substrate protein remaining % ≤ 80%)	B ("B" is defined as 80%< substrate protein remaining %≤ 100%)	B ("B" is defined as 80%< substrate protein remaining %≤ 100%)	A ("A" is defined as 0% ≤ substrate protein remaining % ≤ 80%)	A ("A" is defined as 0% ≤ substrate protein remaining % ≤ 80%)
O=C1CCN(N2C(=O)c3ccc(CN4CCC(N5CCc6cc(F)ccc65)CC4)cc3C2=O)C(=O)N1 [GT-05260, 2-(2,4-dioxotetrahydropyrimidin-1(2H)-yl)-5-((4-(5-fluoroindolin-1-yl)piperidin-1-yl)methyl)isoindoline-1,3-dione]	A ("A" is defined as 0% ≤ substrate protein remaining % ≤ 80%)	A ("A" is defined as 0% ≤ substrate protein remaining % ≤ 80%)	B ("B" is defined as 80%< substrate protein remaining %≤ 100%)	B ("B" is defined as 80%< substrate protein remaining %≤ 100%)	A ("A" is defined as 0% ≤ substrate protein remaining % ≤ 80%)	B ("B" is defined as 80%< substrate protein remaining %≤ 100%)
O=C1CCN(N2C(=O)c3ccc(CN4CC=C(c5ccnc6cc(F)ccc56)CC4)cc3C2=O)C(=O)N1 [GT-05261, 2-(2,4-dioxotetrahydropyrimidin-1(2H)-yl)-5-((4-(7-fluoroquinolin-4-yl)-3,6-dihydropyridin-1(2H)-yl)methyl)isoindoline-1,3-dione]	B ("B" is defined as 80%< substrate protein remaining %≤ 100%)	B ("B" is defined as 80%< substrate protein remaining %≤ 100%)	B ("B" is defined as 80%< substrate protein remaining %≤ 100%)	B ("B" is defined as 80%< substrate protein remaining %≤ 100%)	A ("A" is defined as 0% ≤ substrate protein remaining % ≤ 80%)	B ("B" is defined as 80%< substrate protein remaining %≤ 100%)
O=C1CCN(N2C(=O)c3ccc(CN4CCN(C(c5ccccc5)c5ccccc5)CC4)cc3C2=O)C(=O)N1 [GT-05267, 5-((4-benzhydrylpiperazin-1-yl)methyl)-2-(2,4-dioxotetrahydropyrimidin-1(2H)-yl)isoindoline-1,3-dione]	B ("B" is defined as 80%< substrate protein remaining %≤ 100%)	B ("B" is defined as 80%< substrate protein remaining %≤ 100%)	A ("A" is defined as 0% ≤ substrate protein remaining % ≤ 80%)	A ("A" is defined as 0% ≤ substrate protein remaining % ≤ 80%)	B ("B" is defined as 80%< substrate protein remaining %≤ 100%)	A ("A" is defined as 0% ≤ substrate protein remaining % ≤ 80%)
O=C1CCN(N2C(=O)c3ccc(CN4CCN(C(c5ccc(F)cc5)c5ccc(F)cc5)CC4)cc3C2=O)C(=O)N1 [GT-05268, 5-((4-(bis(4-fluorophenyl)methyl)piperazin-1-yl)methyl)-2-(2,4-dioxotetrahydropyrimidin-1(2H)-yl)isoindoline-1,3-dione]	B ("B" is defined as 80%< substrate protein remaining %≤ 100%)	B ("B" is defined as 80%< substrate protein remaining %≤ 100%)	A ("A" is defined as 0% ≤ substrate protein remaining % ≤ 80%)	A ("A" is defined as 0% ≤ substrate protein remaining % ≤ 80%)	B ("B" is defined as 80%< substrate protein remaining %≤ 100%)	A ("A" is defined as 0% ≤ substrate protein remaining % ≤ 80%)
O=C1CCN(N2C(=O)c3ccc(CN4CCN(C(c5ccc(Cl)cc5)c5ccc(Cl)cc5)CC4)cc3C2=O)C(=O)N1 [GT-05269, 5-((4-(bis(4-chlorophenyl)methyl)piperazin-1-yl)methyl)-2-(2,4-dioxotetrahydropyrimidin-1(2H)-yl)isoindoline-1,3-dione]	B ("B" is defined as 80%< substrate protein remaining %≤ 100%)	B ("B" is defined as 80%< substrate protein remaining %≤ 100%)	B ("B" is defined as 80%< substrate protein remaining %≤ 100%)	A ("A" is defined as 0% ≤ substrate protein remaining % ≤ 80%)	B ("B" is defined as 80%< substrate protein remaining %≤ 100%)	A ("A" is defined as 0% ≤ substrate protein remaining % ≤ 80%)
Cc1nc(C2CCN(Cc3ccc4c(c3)C(=O)N(N3CCC(=O)NC3=O)C4=O)CC2)c2ccsc2n1 [GT-05272, 2-(2,4-dioxotetrahydropyrimidin-1(2H)-yl)-5-((4-(2-methylthieno[2,3-d]pyrimidin-4-yl)piperidin-1-yl)methyl)isoindoline-1,3-dione]	B ("B" is defined as 80%< substrate protein remaining %≤ 100%)	B ("B" is defined as 80%< substrate protein remaining %≤ 100%)	B ("B" is defined as 80%< substrate protein remaining %≤ 100%)	B ("B" is defined as 80%< substrate protein remaining %≤ 100%)	A ("A" is defined as 0% ≤ substrate protein remaining % ≤ 80%)	B ("B" is defined as 80%< substrate protein remaining %≤ 100%)
Cc1sc2ncnc(C3=CCN(Cc4ccc5c(c4)C(=O)N(N4CCC(=O)NC4=O)C5=O)CC3)c2c1C [GT-05273, 5-((4-(5,6-dimethylthieno[2,3-d]pyrimidin-4-yl)-3,6-dihydropyridin-1(2H)-yl)methyl)-2-(2,4-dioxotetrahydropyrimidin-1(2H)-yl)isoindoline-1,3-dione]	B ("B" is defined as 80%< substrate protein remaining %≤ 100%)	B ("B" is defined as 80%< substrate protein remaining %≤ 100%)	B ("B" is defined as 80%< substrate protein remaining %≤ 100%)	B ("B" is defined as 80%< substrate protein remaining %≤ 100%)	A ("A" is defined as 0% ≤ substrate protein remaining % ≤ 80%)	B ("B" is defined as 80%< substrate protein remaining %≤ 100%)
